Laboratory results as given in paper PMC4450297, “Screening Active Compounds from Garcinia Species Native to China Reveals Novel Compounds Targeting the STAT/JAK Signaling Pathway” (BioMed Research International, 2015).

Tested on: SW13
Test: Cell panel screen (CellTiter-Glo)
Type: cell-based, human
Details: SW13 (Adrenal gland), 20 micromolar, 72 hrs
Procedure, shortened: (§1)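 Single-concentration screen: 20 μM compound, 72 h, versus DMSO-only untreated cells. Viability read by CellTiter-Glo luminescence; % inhibition = (untreated − treated)/(untreated − no-cell background) × 100. Cells grown in recommended media plus 10% FBS at 37° C.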

SMILES | Percent Inhibition
C=C(C)C(O)Cc1c(O)cc2oc3cc(O)c(O)c(CC=C(C)C)c3c(=O)c2c1O (stereo not drawn) [bn-17, Bannaxanthone B] | 52%

Tested on: HCC1569
Test: Cell panel screen (CellTiter-Glo)
Type: cell-based, human
Details: HCC1569 (Breast), 20 micromolar, 72 hrs
Procedure, shortened: as §1

SMILES | Percent Inhibition
C=C(C)C(O)Cc1c(O)cc2oc3cc(O)c(O)c(CC=C(C)C)c3c(=O)c2c1O (stereo not drawn) [bn-17, Bannaxanthone B] | 51%

Tested on: BT-474
Test: Cell panel screen (CellTiter-Glo)
Type: cell-based, human
Details: BT-474 (Breast), 20 micromolar, 72 hrs
Procedure, shortened: as §1

SMILES | Percent Inhibition
C=C(C)C(O)Cc1c(O)cc2oc3cc(O)c(O)c(CC=C(C)C)c3c(=O)c2c1O (stereo not drawn) [bn-17, Bannaxanthone B] | 27%

Tested on: T98G
Test: Cell panel screen (CellTiter-Glo)
Type: cell-based, human
Details: T98G (Brain), 20 micromolar, 72 hrs
Procedure, shortened: as §1

SMILES | Percent Inhibition
C=C(C)C(O)Cc1c(O)cc2oc3cc(O)c(O)c(CC=C(C)C)c3c(=O)c2c1O (stereo not drawn) [bn-17, Bannaxanthone B] | 94%

Tested on: TCCSUP
Test: Cell panel screen (CellTiter-Glo)
Type: cell-based, human
Details: TCCSUP (Urinary bladder), 20 micromolar, 72 hrs
Procedure, shortened: as §1

SMILES | Percent Inhibition
C=C(C)C(O)Cc1c(O)cc2oc3cc(O)c(O)c(CC=C(C)C)c3c(=O)c2c1O (stereo not drawn) [bn-17, Bannaxanthone B] | 79%

Tested on: HGC-27
Test: Cell panel screen (CellTiter-Glo)
Type: cell-based, human
Details: HGC-27 (Stomach), 20 micromolar, 72 hrs
Procedure, shortened: as §1

SMILES | Percent Inhibition
C=C(C)C(O)Cc1c(O)cc2oc3cc(O)c(O)c(CC=C(C)C)c3c(=O)c2c1O (stereo not drawn) [bn-17, Bannaxanthone B] | 62%

Tested on: C3A
Test: Cell panel screen (CellTiter-Glo)
Type: cell-based, human
Details: C3A (Liver), 20 micromolar, 72 hrs
Procedure, shortened: as §1

SMILES | Percent Inhibition
C=C(C)C(O)Cc1c(O)cc2oc3cc(O)c(O)c(CC=C(C)C)c3c(=O)c2c1O (stereo not drawn) [bn-17, Bannaxanthone B] | 39%

Tested on: J82
Test: Cell panel screen (CellTiter-Glo)
Type: cell-based, human
Details: J82 (Urinary bladder), 20 micromolar, 72 hrs
Procedure, shortened: as §1

SMILES | Percent Inhibition
C=C(C)C(O)Cc1c(O)cc2oc3cc(O)c(O)c(CC=C(C)C)c3c(=O)c2c1O (stereo not drawn) [bn-17, Bannaxanthone B] | 52%

Tested on: Colo 205
Test: Cell panel screen (CellTiter-Glo)
Type: cell-based, human
Details: Colo 205, 20 micromolar, 72 hrs
Procedure, shortened: as §1

SMILES | Percent Inhibition
C=C(C)C(O)Cc1c(O)cc2oc3cc(O)c(O)c(CC=C(C)C)c3c(=O)c2c1O (stereo not drawn) [bn-17, Bannaxanthone B] | 57%

Tested on: C8166
Test: Cell panel screen (CellTiter-Glo)
Type: cell-based, human
Details: C8166 (Leukemia), 20 micromolar, 72 hrs
Procedure, shortened: as §1

SMILES | Percent Inhibition
C=C(C)C(O)Cc1c(O)cc2oc3cc(O)c(O)c(CC=C(C)C)c3c(=O)c2c1O (stereo not drawn) [bn-17, Bannaxanthone B] | 71%

Tested on: HCC1395
Test: Cell panel screen (CellTiter-Glo)
Type: cell-based, human
Details: HCC1395 (Breast), 20 micromolar, 72 hrs
Procedure, shortened: as §1

SMILES | Percent Inhibition
C=C(C)C(O)Cc1c(O)cc2oc3cc(O)c(O)c(CC=C(C)C)c3c(=O)c2c1O (stereo not drawn) [bn-17, Bannaxanthone B] | 83%

Tested on: HEC-1-A
Test: Cell panel screen (CellTiter-Glo)
Type: cell-based, human
Details: HEC-1-A (Uterus), 20 micromolar, 72 hrs
Procedure, shortened: as §1

SMILES | Percent Inhibition
C=C(C)C(O)Cc1c(O)cc2oc3cc(O)c(O)c(CC=C(C)C)c3c(=O)c2c1O (stereo not drawn) [bn-17, Bannaxanthone B] | 46%

Tested on: NCI-H28
Test: Cell panel screen (CellTiter-Glo)
Type: cell-based, human
Details: NCI-H28 (Lung), 20 micromolar, 72 hrs
Procedure, shortened: as §1

SMILES | Percent Inhibition
C=C(C)C(O)Cc1c(O)cc2oc3cc(O)c(O)c(CC=C(C)C)c3c(=O)c2c1O (stereo not drawn) [bn-17, Bannaxanthone B] | 69%

Tested on: BT-549
Test: Cell panel screen (CellTiter-Glo)
Type: cell-based, human
Details: BT-549 (Breast), 20 micromolar, 72 hrs
Procedure, shortened: as §1

SMILES | Percent Inhibition
C=C(C)C(O)Cc1c(O)cc2oc3cc(O)c(O)c(CC=C(C)C)c3c(=O)c2c1O (stereo not drawn) [bn-17, Bannaxanthone B] | 34%

Tested on: HCC1599
Test: Cell panel screen (CellTiter-Glo)
Type: cell-based, human
Details: HCC1599 (Breast), 20 micromolar, 72 hrs
Procedure, shortened: as §1

SMILES | Percent Inhibition
C=C(C)C(O)Cc1c(O)cc2oc3cc(O)c(O)c(CC=C(C)C)c3c(=O)c2c1O (stereo not drawn) [bn-17, Bannaxanthone B] | 84%

Tested on: NCI-H1694
Test: Cell panel screen (CellTiter-Glo)
Type: cell-based, human
Details: NCI-H1694 (Lung), 20 micromolar, 72 hrs
Procedure, shortened: as §1

SMILES | Percent Inhibition
C=C(C)C(O)Cc1c(O)cc2oc3cc(O)c(O)c(CC=C(C)C)c3c(=O)c2c1O (stereo not drawn) [bn-17, Bannaxanthone B] | 96%

Tested on: ZR-75-30
Test: Cell panel screen (CellTiter-Glo)
Type: cell-based, human
Details: ZR-75-30 (Breast), 20 micromolar, 72 hrs
Procedure, shortened: as §1

SMILES | Percent Inhibition
C=C(C)C(O)Cc1c(O)cc2oc3cc(O)c(O)c(CC=C(C)C)c3c(=O)c2c1O (stereo not drawn) [bn-17, Bannaxanthone B] | 81%

Tested on: HPAF-II
Test: Cell panel screen (CellTiter-Glo)
Type: cell-based, human
Details: HPAF-II (Pancreas), 20 micromolar, 72 hrs
Procedure, shortened: as §1

SMILES | Percent Inhibition
C=C(C)C(O)Cc1c(O)cc2oc3cc(O)c(O)c(CC=C(C)C)c3c(=O)c2c1O (stereo not drawn) [bn-17, Bannaxanthone B] | 14%
